Experimental findings from PMC10216335, “Voltage-Gated Sodium Channel NaV1.7 Inhibitors with Potent Anticancer Activities in Medullary Thyroid Cancer Cells” (Cancers, 2023) are described below.

This test concerns the target T1, NaV1.7 (Rattus norvegicus, UniProt O08562).
T1 construct: gene Scn9a; rat cDNA NaV1.7 (GenBank No. U79568), transiently expressed in HEK-293 cells
The experiment in a line: whole-cell patch-clamp, INa block in transfected HEK-293 cells. In kind it is cell-based.

Molecules are shown by their SMILES. Counter-ions that a name gives are not always drawn.

T1 sequence (O08562 whole entry): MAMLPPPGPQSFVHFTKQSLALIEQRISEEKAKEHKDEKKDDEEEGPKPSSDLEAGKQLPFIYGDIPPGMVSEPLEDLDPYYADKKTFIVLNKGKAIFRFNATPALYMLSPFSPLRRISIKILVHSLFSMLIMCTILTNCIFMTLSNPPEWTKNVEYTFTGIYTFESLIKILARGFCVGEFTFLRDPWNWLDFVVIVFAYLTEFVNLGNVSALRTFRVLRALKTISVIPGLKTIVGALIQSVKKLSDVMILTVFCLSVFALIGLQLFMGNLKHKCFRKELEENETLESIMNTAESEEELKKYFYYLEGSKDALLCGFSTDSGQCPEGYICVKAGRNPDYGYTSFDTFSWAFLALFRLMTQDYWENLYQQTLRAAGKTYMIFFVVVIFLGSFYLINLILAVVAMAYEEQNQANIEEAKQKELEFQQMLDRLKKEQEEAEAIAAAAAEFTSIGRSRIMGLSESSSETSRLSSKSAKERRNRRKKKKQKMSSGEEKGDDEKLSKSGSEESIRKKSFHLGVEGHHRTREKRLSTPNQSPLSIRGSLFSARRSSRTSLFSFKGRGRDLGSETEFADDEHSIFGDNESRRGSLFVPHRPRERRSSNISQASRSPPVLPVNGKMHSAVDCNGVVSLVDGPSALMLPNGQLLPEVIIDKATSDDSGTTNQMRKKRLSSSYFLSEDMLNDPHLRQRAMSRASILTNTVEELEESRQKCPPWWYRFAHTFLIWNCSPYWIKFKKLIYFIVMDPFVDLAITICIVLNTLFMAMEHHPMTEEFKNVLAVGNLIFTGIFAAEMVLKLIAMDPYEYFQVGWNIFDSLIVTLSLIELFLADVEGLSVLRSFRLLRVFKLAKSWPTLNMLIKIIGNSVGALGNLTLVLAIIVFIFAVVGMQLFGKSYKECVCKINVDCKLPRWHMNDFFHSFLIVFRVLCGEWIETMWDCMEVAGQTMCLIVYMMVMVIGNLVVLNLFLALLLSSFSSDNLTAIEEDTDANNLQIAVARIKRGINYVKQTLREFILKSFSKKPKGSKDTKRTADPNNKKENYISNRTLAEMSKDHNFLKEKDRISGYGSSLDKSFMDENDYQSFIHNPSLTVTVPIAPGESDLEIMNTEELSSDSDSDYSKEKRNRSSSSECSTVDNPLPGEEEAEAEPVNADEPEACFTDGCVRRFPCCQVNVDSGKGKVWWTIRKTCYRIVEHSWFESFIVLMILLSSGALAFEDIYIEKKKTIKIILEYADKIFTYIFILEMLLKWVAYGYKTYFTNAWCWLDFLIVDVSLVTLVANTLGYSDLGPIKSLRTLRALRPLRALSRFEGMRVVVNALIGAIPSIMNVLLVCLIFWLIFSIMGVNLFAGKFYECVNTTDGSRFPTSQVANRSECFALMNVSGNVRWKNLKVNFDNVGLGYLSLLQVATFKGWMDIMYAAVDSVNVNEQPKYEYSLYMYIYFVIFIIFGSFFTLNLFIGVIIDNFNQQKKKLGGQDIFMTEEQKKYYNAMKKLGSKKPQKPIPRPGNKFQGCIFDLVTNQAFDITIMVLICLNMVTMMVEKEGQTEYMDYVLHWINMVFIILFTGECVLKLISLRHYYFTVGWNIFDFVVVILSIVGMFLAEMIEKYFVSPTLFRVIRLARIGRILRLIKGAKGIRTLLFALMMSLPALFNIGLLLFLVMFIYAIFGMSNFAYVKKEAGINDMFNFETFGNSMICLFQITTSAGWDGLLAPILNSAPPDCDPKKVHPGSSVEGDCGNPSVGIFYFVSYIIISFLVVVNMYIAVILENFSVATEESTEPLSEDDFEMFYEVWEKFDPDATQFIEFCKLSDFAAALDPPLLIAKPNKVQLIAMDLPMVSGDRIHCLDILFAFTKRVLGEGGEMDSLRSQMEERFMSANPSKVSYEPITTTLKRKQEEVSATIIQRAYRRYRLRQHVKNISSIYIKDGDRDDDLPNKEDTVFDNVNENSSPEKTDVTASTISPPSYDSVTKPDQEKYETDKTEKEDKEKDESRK

In turn, `c1ccc(C(CCCNCCCN2CCCCC2)c2ccccc2)cc1` [SV188, 4,4-Diphenylbutyl [3-(piperidin-1-yl)propyl]amine Hydrochloride] gave an IC50 of 3.6 µM.
